Source: ChEMBL document CHEMBL1201862, “PubChem BioAssay data set” (2004)
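Values below derive from 48-hour exposures of cells grown in 96-well plates, with endpoints linearly interpolated between the two concentrations bracketing the appropriate inhibition level. GI50 is the concentration that inhibits growth by half.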 Activity calls are given as the source filed them. Cut-off read from the data, not from the text of the source: active = GI50 up to about 1.1 µM and inactive = higher.

Assays:
Assay in all cases: growth of human tumour cells (NCI), 48 h
786-0 = test system: 786-0
CAKI-1 = test system: CAKI-1
COLO 205 = test system: COLO 205
DU-145 = test system: DU-145
HL-60 = test system: HL-60
HT-29 = test system: HT-29
Hs-578T = test system: Hs-578T
IGROV-1 = test system: IGROV-1
KM12 = test system: KM12
M14 = test system: M14
NCI/ADR-RES = test system: NCI/ADR-RES
SF-268 = test system: SF-268
SF-295 = test system: SF-295
SF-539 = test system: SF-539
SNB-75 = test system: SNB-75
U-251 = test system: U-251
UACC-257 = test system: UACC-257
UACC-62 = test system: UACC-62
UO-31 = test system: UO-31

SMILES | GI50 (786-0) | GI50 (CAKI-1) | GI50 (COLO 205) | GI50 (DU-145) | GI50 (HL-60) | GI50 (HT-29) | GI50 (Hs-578T) | GI50 (IGROV-1) | GI50 (KM12) | GI50 (M14) | GI50 (NCI/ADR-RES) | GI50 (SF-268) | GI50 (SF-295) | GI50 (SF-539) | GI50 (SNB-75) | GI50 (U-251) | GI50 (UACC-257) | GI50 (UACC-62) | GI50 (UO-31)
O=C1Nc2ccccc2/C1=C1/Nc2ccccc2/C1=N/OCCOCCO | 2.48 µM (inactive) | 0.201 µM (active) | 1.39 µM (inactive) | 1.39 µM (inactive) | 2.11 µM (inactive) | 1.45 µM (inactive) | 0.592 µM (active) | 0.0836 µM (active) | 0.0423 µM (active) | 1.9 µM (inactive) | 4.17 µM (inactive) | 3.19 µM (inactive) | 3.1 µM (inactive) | 2.88 µM (inactive) | 2.35 µM (inactive) | 3.29 µM (inactive) | 17.5 µM (inactive) | 1.44 µM (inactive) | 0.662 µM (active)
NNC(=O)CC(=O)Nc1ccc(S(=O)(=O)c2ccc(NC(=O)CC(=O)NN)cc2)cc1 | > 100 µM (inactive) | > 100 µM (inactive) | > 100 µM (inactive) | > 100 µM (inactive) | > 100 µM (inactive) | > 100 µM (inactive) | > 100 µM (inactive) | > 100 µM (inactive) | > 100 µM (inactive) | > 100 µM (inactive) | > 100 µM (inactive) | > 100 µM (inactive) | > 100 µM (inactive) | > 100 µM (inactive) | > 100 µM (inactive) | > 100 µM (inactive) | > 100 µM (inactive) | > 100 µM (inactive) | > 100 µM (inactive)
COc1ccc(/C=C/C(=N/NC(=O)N/N=C(/C=C/c2ccc(OC)cc2)C(C)C)C(C)C)cc1 | > 100 µM (inactive) | > 100 µM (inactive) | 43.7 µM (inactive) | 80.2 µM (inactive) | 33 µM (inactive) | 42.3 µM (inactive) | > 100 µM (inactive) | > 100 µM (inactive) | 51.2 µM (inactive) | 44.4 µM (inactive) | 69.7 µM (inactive) | > 100 µM (inactive) | 99.1 µM (inactive) | > 100 µM (inactive) | > 100 µM (inactive) | 71 µM (inactive) | > 100 µM (inactive) | > 100 µM (inactive) | 76.2 µM (inactive)
N=C(N)NS(=O)(=O)c1ccc(NNc2c3ccccc3nc3c(C(=O)Nc4ccc(S(N)(=O)=O)cc4)cccc23)cc1 | 21.7 µM (inactive) | > 100 µM (inactive) | 31 µM (inactive) | 94 µM (inactive) | 23.9 µM (inactive) | 23.4 µM (inactive) | 18.4 µM (inactive) | 28.8 µM (inactive) | 30.8 µM (inactive) | 83.4 µM (inactive) | > 100 µM (inactive) | 16.8 µM (inactive) | 48.2 µM (inactive) | 26.6 µM (inactive) | 26.4 µM (inactive) | 7.59 µM (inactive) | > 100 µM (inactive) | 18.7 µM (inactive) | > 100 µM (inactive)
C[C@@H]1CCC2[C@@H](C)[C@H](O[C@H]3O[C@@H]4O[C@@]5(C)CCC6[C@H](C)CCC([C@H]3C)[C@]64OO5)O[C@@H]3O[C@@]4(C)CCC1[C@@]23OO4 (stereo partly specified) | 0.361 µM (active) | 0.27 µM (active) | 0.0388 µM (active) | 1.93 µM (inactive) | 0.0243 µM (active) | 0.0491 µM (active) | 0.39 µM (active) | 0.931 µM (active) | 0.0317 µM (active) | 0.475 µM (active) | 0.192 µM (active) | 3.44 µM (inactive) | 0.32 µM (active) | 0.264 µM (active) | 0.188 µM (active) | 0.0637 µM (active) | 0.0912 µM (active) | 0.0805 µM (active) | 0.0559 µM (active)
COc1ccc(NCC(=O)Nn2c(C)nc3ccc(S(=O)(=O)Nc4ccc(OC)cc4)cc3c2=O)cc1 | > 100 µM (inactive) | > 100 µM (inactive) | > 100 µM (inactive) | > 100 µM (inactive) | > 100 µM (inactive) | > 100 µM (inactive) | > 100 µM (inactive) | 69.7 µM (inactive) | > 100 µM (inactive) | > 100 µM (inactive) | > 100 µM (inactive) | > 100 µM (inactive) | > 100 µM (inactive) | > 100 µM (inactive) | > 100 µM (inactive) | > 100 µM (inactive) | > 100 µM (inactive) | > 100 µM (inactive) | > 100 µM (inactive)
O=C(CC(Cl)=C(Cl)Cl)c1ccccc1 | 21.8 µM (inactive) | 24.1 µM (inactive) | 28.8 µM (inactive) | > 100 µM (inactive) | 55.8 µM (inactive) | 31.6 µM (inactive) | > 100 µM (inactive) | 80 µM (inactive) | 53.1 µM (inactive) | 49.5 µM (inactive) | 74.8 µM (inactive) | > 100 µM (inactive) | > 100 µM (inactive) | > 100 µM (inactive) | > 100 µM (inactive) | 57.1 µM (inactive) | 27.4 µM (inactive) | 37.5 µM (inactive) | 80.2 µM (inactive)
CC1=NN(c2nc(N)nc(CS(C)(=O)=O)n2)C(C)(C)C1 | > 100 µM (inactive) | > 100 µM (inactive) | > 100 µM (inactive) | > 100 µM (inactive) | > 100 µM (inactive) | > 100 µM (inactive) | > 100 µM (inactive) | > 100 µM (inactive) | > 100 µM (inactive) | > 100 µM (inactive) | > 100 µM (inactive) | > 100 µM (inactive) | > 100 µM (inactive) | > 100 µM (inactive) | > 100 µM (inactive) | > 100 µM (inactive) | > 100 µM (inactive) | > 100 µM (inactive) | > 100 µM (inactive)
C/C=C/COc1cc(NC(=S)c2ccoc2C)ccc1OC | 75.3 µM (inactive) | 25.6 µM (inactive) | > 100 µM (inactive) | 71.1 µM (inactive) | 60.3 µM (inactive) | > 100 µM (inactive) | 34 µM (inactive) | 55.2 µM (inactive) | > 100 µM (inactive) | > 100 µM (inactive) | 39.4 µM (inactive) | 44.3 µM (inactive) | 77.8 µM (inactive) | 76.7 µM (inactive) | 27.7 µM (inactive) | 51.4 µM (inactive) | > 100 µM (inactive) | > 100 µM (inactive) | 61.4 µM (inactive)
O=C(O)c1c2c(cc3c1CC(Cc1ccccc1)C3=O)CCC2 (stereo unspecified) | > 100 µM (inactive) | > 100 µM (inactive) | > 100 µM (inactive) | > 100 µM (inactive) | 22.4 µM (inactive) | 57.8 µM (inactive) | > 100 µM (inactive) | > 100 µM (inactive) | 65.8 µM (inactive) | > 100 µM (inactive) | > 100 µM (inactive) | > 100 µM (inactive) | > 100 µM (inactive) | 76.6 µM (inactive) | > 100 µM (inactive) | > 100 µM (inactive) | > 100 µM (inactive) | > 100 µM (inactive) | 16.6 µM (inactive)
CC1CCCCCC(=O)c2c(O)cc(O)cc2CC(=O)O1 (stereo unspecified) [CURVULARIN] | > 100 µM (inactive) | > 100 µM (inactive) | > 100 µM (inactive) | > 100 µM (inactive) | 54.3 µM (inactive) | > 100 µM (inactive) | > 100 µM (inactive) | > 100 µM (inactive) | > 100 µM (inactive) | > 100 µM (inactive) | > 100 µM (inactive) | > 100 µM (inactive) | 94.8 µM (inactive) | > 100 µM (inactive) | 57.4 µM (inactive) | > 100 µM (inactive) | 55.6 µM (inactive) | > 100 µM (inactive) | 45 µM (inactive)
NC(=O)NCCCC(NC(=O)OCCCCCCn1ccc(=O)[nH]c1=O)C(=O)O (stereo unspecified) | > 100 µM (inactive) | > 100 µM (inactive) | > 100 µM (inactive) | > 100 µM (inactive) | > 100 µM (inactive) | > 100 µM (inactive) | > 100 µM (inactive) | > 100 µM (inactive) | > 100 µM (inactive) | > 100 µM (inactive) | > 100 µM (inactive) | > 100 µM (inactive) | > 100 µM (inactive) | > 100 µM (inactive) | > 100 µM (inactive) | > 100 µM (inactive) | > 100 µM (inactive) | > 100 µM (inactive) | > 100 µM (inactive)
Cc1cc2[nH]c(Cl)c(/C=C3\C(=O)Nc4ccccc43)c2cc1O | 5.4 µM (inactive) | 5.25 µM (inactive) | 13.8 µM (inactive) | 2.86 µM (inactive) | 1.14 µM (inactive) | 4.07 µM (inactive) | 4.18 µM (inactive) | 1.8 µM (inactive) | 2.92 µM (inactive) | 2.88 µM (inactive) | 3.25 µM (inactive) | 4.69 µM (inactive) | 2.79 µM (inactive) | 1.17 µM (inactive) | 3.45 µM (inactive) | 2.26 µM (inactive) | 11.2 µM (inactive) | 1.23 µM (inactive) | 4.45 µM (inactive)
N#Cc1ccc(C(=O)/C=C/c2ccc(O)c(O)c2)cc1 | > 38.4 µM (inactive) | 15.3 µM (inactive) | 16.7 µM (inactive) | 16.3 µM (inactive) | 2.5 µM (inactive) | 16.4 µM (inactive) | 24.4 µM (inactive) | 12.8 µM (inactive) | 13.9 µM (inactive) | 18.2 µM (inactive) | > 43 µM (inactive) | 14.1 µM (inactive) | 17.7 µM (inactive) | 15.6 µM (inactive) | 17.4 µM (inactive) | 13.4 µM (inactive) | 16.2 µM (inactive) | 17.1 µM (inactive) | 12.4 µM (inactive)
